Literature values in US20240090499A1, “PRESERVATIVE COMPOSITIONS” (Dermegen Inc., priority 2022, published 2024).
Read-outs that look alike come from different tables or passages of the source.

System: fungi (molds)
Conditions: ingredient on its own

Q: Which “anti-fungal activity as known” value does the source give for `CCCCCCCC(=O)OCC(O)CO` (stereo not drawn) [glyceryl caprylate] here?
A: The value was “weak preservatives against molds”.

Q: Which results are given for polylysine?
A: anti-fungal activity as known: only weakly anti-fungal; anti-fungal activity as known (listed as Polylysine): weak preservative against fungal microorganisms such as molds
